In article PMC10812767, “Therapeutic Drug Monitoring of Dalbavancin in Real Life: A Two-Year Experience” (Antibiotics, 2023):

Columns and labels:
[1] = cited from earlier work
[2] = Log-linear regression models describing the time distribution of dalbavancin concentrations; details: for Days >4 mg/L / Days >8 mg/L: log-linear regression model, pooled patients
Experimental: Coupled with the Cmin values, these samples facilitated the development of log-linear regression models describing the time distribution of dalbavancin concentrations for each injection. By targeting the Cmin values for dalbavancin that were not lower than 4 or 8 mg/L, we were able to estimate the number of days needed between each injection to guarantee these targets.
We retrospectively analyzed data from adult patients who received at least 3 doses of dalbavancin for the treatment of osteoarticular and/or periprosthetic joint infections for whom TDM was performed as part of clinical practice. On the day of the scheduled injection, the Cmin for dalbavancin within a 1 h time window before the injection was considered for both Cmin- and Cmax-based TDM. Peak drug concentrations (30 to 60 min after the end of the infusion) were collected only in patients subjected to Cmax-based TDM.
Dalbavacin concentrations were considered both as a continuous variable (expressed as the mean ± standard deviation) and categorical variables, and data (expressed as a percentage) were clustered according to their frequency distribution within the therapeutic ranges proposed in the available literature (>4 or >8 mg/L). Inter-individual variability in the dalbavancin concentrations was calculated as the percentage of the coefficient of variation (CV%). Log-linear regressions were performed using the built-in statistical package in Microsoft Excel (Microsoft Office Software, Microsoft Company, Redmond, WA, USA). The goodness of the log-linear regression models developed by plotting logarithmic concentrations (Y) of dalbavancin with time (X) was quantified using the coefficient of correlation (r). Unpaired t-tests were used to compare the Cmin for dalbavancin, the number of drug injections, and the times of injections between Cmin- and Cmax-based TDM. Statistical significance was set at <0.05 (significant difference) and <0.01 (highly significant difference).

[3] = Therapeutic drug monitoring of plasma dalbavancin concentrations (Cmin, Cmax) by LC-MS/MS; type: in vivo, human (patients)
Excerpt: This study involved a retrospective analysis of TDM that was routinely carried out by the ASST Fatebenefratelli Sacco University Hospital (Milan, Italy) from December 2021 to November 2023; the analysis included samples that were collected within our hospital and those received from other hospitals (our laboratory is a reference laboratory for the TDM of dalbavancin in Lombardy Region, Italy). This service also included the on-demand estimation of the next dalbavancin injection. This estimation required the collection of both the Cmin and the Cmax for dalbavancin. […] Plasma blood samples with dalbavancin were assessed by using ethylene diamine tetra-acetic acid (EDTA)-containing Vacutainers®. All samples were centrifuged at 3000× g, and the plasma was separated and stored at −20 °C. Dalbavancin quantification was performed through a validated LC-MS/MS method that was developed and validated according to the EMA guidelines. The analytical process consisted of a fast protein precipitation protocol of 50 µL of plasma with 400 µL of precipitation solution (methanol/acetonitrile 3/1), centrifugation at 10,000× g, 1:3 dilutions with water, and analysis. […] Waters, Milan, Italy). For quantification, analysis was performed in the ESI-positive mode by monitoring the transition (m/z = 909.45 > 340.2) for dalbavancin.

CN[C@H]1C(=O)N[C@@H]2Cc3ccc(cc3)Oc3cc4cc(c3O[C@@H]3O[C@H](C(=O)O)[C@@H](O)[C@H](O)[C@H]3NC(=O)CCCCCCCCC(C)C)Oc3ccc(cc3Cl)[C@@H](O)[C@@H]3NC(=O)[C@H](NC(=O)[C@@H]4NC(=O)[C@@H](NC2=O)c2cc(cc(O)c2Cl)Oc2cc1ccc2O)c1ccc(O)c(c1)-c1c(O[C@H]2O[C@H](CO)[C@@H](O)[C@H](O)[C@@H]2O)cc(O)cc1[C@@H](C(=O)NCCCN(C)C)NC3=O [dalbavancin]
terminal half-life ([1]; ref [1],[2],[3],[4]): > 14 days
total volume of distribution ([1]; ref [2],[3]): ~16 L
Days >4 mg/L ([2]; 2nd injection): 52 days
Days >8 mg/L ([2]; 2nd injection): 42 days
Days >4 mg/L ([2]; 3rd injection): 52 days
Days >8 mg/L ([2]; 3rd injection): 43 days
Days >4 mg/L ([2]; 4th injection): 59 days
Days >8 mg/L ([2]; 4th injection): 48 days
Days >4 mg/L ([2]; 5th injection): 56 days
Days >8 mg/L ([2]; 5th injection): 45 days
Days >4 mg/L ([2]; 6th injection): 53 days
Days >8 mg/L ([2]; 6th injection): 44 days
Days >4 mg/L ([2]; >6 injections): 52 days
Days >8 mg/L ([2]; >6 injections): 42 days
Days >4 mg/L ([2]; Overall): 54 days
Days >8 mg/L ([2]; Overall): 44 days
Days between injections needed to maintain Cmin >8 mg/L ([2]; estimated from pooled log-linear regression models, range over injections): 42 to 48 days
Cmax of dalbavancin, range ([3]; 107 TDM assessments, plasma, 30 to 60 min after end of infusion, LC-MS/MS, range): 74.9 to 995.6 µg/mL
Dalbavancin Cmin CV% ([3]; Cmax-based TDM, 2nd injection): 44%
Dalbavancin Cmin CV% ([3]; Cmax-based TDM, 3rd injection): 46%
Dalbavancin Cmin CV% ([3]; Cmax-based TDM, 4th injection): 40%
Dalbavancin Cmin CV% ([3]; Cmax-based TDM, 5th injection): 21%
Dalbavancin Cmin CV% ([3]; Cmax-based TDM, 6th injection): 32%
Dalbavancin Cmin CV% ([3]; Cmax-based TDM, ≥6 injections): 32%
Dalbavancin Cmin CV% ([3]; Cmin-based TDM, 2nd injection): 45%
Dalbavancin Cmin CV% ([3]; Cmin-based TDM, 3rd injection): 57%
Dalbavancin Cmin CV% ([3]; Cmin-based TDM, 4th injection): 43%
Dalbavancin Cmin CV% ([3]; Cmin-based TDM, 5th injection): 56%
Dalbavancin Cmin CV% ([3]; Cmin-based TDM, 6th injection): 41%
Dalbavancin Cmin CV% ([3]; Cmin-based TDM, ≥6 injections): 37%
Cmin for dalbavancin, range ([3]; human, in vivo, iv): 4.1 to 70.5 µg/mL
Cmin for dalbavancin before the second injection ([3]; human, in vivo, iv, SD): 39.6 ± 35.4 µg/mL
Cmin for dalbavancin, mean ([3]; human, in vivo, iv, SD): 20.7 ± 14.0 µg/mL
Cmax ([3]; human, in vivo, SD): 310 ± 158 µg/mL
